The source of these data is paper PMC2673050 (Journal of medicinal chemistry, 2009).

Data set [1] concerns the target T1, Human QR2 (Homo sapiens, UniProt P16083).
T1 sequence (P16083 1-231): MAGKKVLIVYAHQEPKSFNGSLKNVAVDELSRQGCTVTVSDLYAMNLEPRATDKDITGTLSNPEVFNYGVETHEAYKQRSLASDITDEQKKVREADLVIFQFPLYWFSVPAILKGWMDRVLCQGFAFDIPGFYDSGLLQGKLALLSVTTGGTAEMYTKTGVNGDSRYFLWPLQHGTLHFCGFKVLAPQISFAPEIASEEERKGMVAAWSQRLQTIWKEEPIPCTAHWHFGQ
Briefly: QR2 inhibition assay. It counts as biochemical. As to conditions: for Increase in QR2 inhibitory potency relative to compound 1: relative to natural product 1.

The nature of data set [2]: Cytotoxicity testing. As to conditions: human, MCF7 breast cells. The data set is classed as cell-based.
A short description of data set [3]: Cytotoxicity testing. The settings on record: human, LU lung cancer cells. The data set is classed as cell-based.
Data set [4] deals with T2, aromatase (CYP19A1) (Homo sapiens, UniProt P11511).
T2 sequence (P11511 1-503): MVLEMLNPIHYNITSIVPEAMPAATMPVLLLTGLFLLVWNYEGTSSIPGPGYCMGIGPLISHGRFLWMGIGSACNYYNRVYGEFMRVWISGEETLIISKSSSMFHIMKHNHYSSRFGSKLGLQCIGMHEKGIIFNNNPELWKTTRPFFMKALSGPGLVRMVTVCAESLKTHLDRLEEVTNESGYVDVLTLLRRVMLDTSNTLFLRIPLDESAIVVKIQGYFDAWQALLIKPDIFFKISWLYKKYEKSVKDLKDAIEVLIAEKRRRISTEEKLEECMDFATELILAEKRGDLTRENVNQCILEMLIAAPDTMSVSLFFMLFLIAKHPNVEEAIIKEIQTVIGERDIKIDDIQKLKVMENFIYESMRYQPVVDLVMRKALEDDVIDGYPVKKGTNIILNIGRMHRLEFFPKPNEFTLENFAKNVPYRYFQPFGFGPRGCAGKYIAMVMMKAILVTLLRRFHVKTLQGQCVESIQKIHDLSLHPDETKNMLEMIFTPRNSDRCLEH
The data set can be described thus: Aromatase inhibition assay. The data set is classed as biochemical.

Data set [5] concerns four different cell lines. Briefly: Cytotoxicity, overall statement for four cell lines. It counts as cell-based.
The test system of data set [6] is Salmonella typhimurium strain TM677. As to conditions: S. typhimurium TM677; cited from earlier work.
The subject of data set [7] is mouse mammary gland organ culture (MMOC). As to conditions: cited from earlier work.

For `COc1cccc2c(C)cc(=O)n(C)c12` [1f, 8-Methoxy-1,4-dimethylquinolin-2(1H)-one], the “Increase in QR2 inhibitory potency relative to compound 1” value in data set [1] is listed as “approximately 10 fold”. The IC50 at 72 h in data set [2] and in data set [3] was more than 98.5 µM throughout.
Turning to `COc1c(OC)c(OC)c2c(c(C)cc(=O)n2C)c1OC` [1r, 5,6,7,8-Tetramethoxy-1,4-dimethylquinolin-2(1H)-one], the “QR2 inhibitory activity (in words)” value in data set [1] was “completely inactive”. For the same compound, the “Aromatase inhibitory activity (in words)” value in data set [4] is listed as “submicromolar range”. In addition, the IC50 at 72 h in data set [2] and in data set [3] was more than 68.2 µM throughout.
In the case of `COc1ccc(OC)c2c(C)cc(=O)[nH]c12` [1k, 5,8-Dimethoxy-4-methylquinolin-2(1H)-one], the IC50 at 72 h in data set [2] and in data set [3] was more than 91.2 µM throughout.
As to `COc1ccc2c(C)cc(=O)n(C)c2c1OC` [1h, 7,8-Dimethoxy-1,4-dimethylquinolin-2(1H)-one], the half-maximal inhibitory concentration (IC50) at 72 h in data set [2] and in data set [3] was more than 85.8 µM in each case.
`Cc1cc(=O)n(C)c2c3c(ccc12)OCO3` [1b, 6,9-Dimethyl-[1,3]dioxolo[4,5-h]quinolin-8(9H)-one]: the “Increase in QR2 inhibitory potency relative to compound 1” value in data set [1] is “more than 8 fold”. Moreover, the IC50 at 72 h in data set [2] and in data set [3] was more than 92.1 µM each time.
As for `COc1ccc(OC)c2c1c(C)cc(=O)n2C` [1l, 5,8-Dimethoxy-1,4-dimethylquinolin-2(1H)-one], the “Increase in QR2 inhibitory potency relative to compound 1” value in data set [1] worked out at 10 fold. In addition, the “Aromatase inhibitory activity (in words)” value in data set [4] is “submicromolar range”. The IC50 at 72 h in data set [2] and in data set [3] was more than 85.7 µM each time.
Consider `COc1cc(OC)c2[nH]c(=O)cc(C)c2c1OC` [1o, 5,6,8-Trimethoxy-4-methylquinolin-2(1H)-one], for which, in data set [5], the “Cytotoxicity (in words)” value is reported as “low degree of cytotoxicity”.
`COc1cc2c(C)cc(=O)[nH]c2c(OC)c1OC` [1m, 6,7,8-Trimethoxy-4-methylquinolin-2(1H)-one]: the IC50 at 72 h in data set [2] and in data set [3] was more than 80.3 µM each time.
In the case of `Cc1cc(=O)n(C)c2ccccc12` [1d, 1,4-Dimethylquinolin-2(1H)-one], the “Increase in QR2 inhibitory potency relative to compound 1” value in data set [1] is “approximately 3 fold”. Also, in data set [4], the “Aromatase inhibitory activity (in words)” value is “inactive”. Besides, the IC50 at 72 h in data set [2] and in data set [3] was more than 116 µM in each case.
Consider `COc1cc(OC)c2[nH]c(=O)cc(C)c2c1` [1i, 6,8-Dimethoxy-4-methylquinolin-2(1H)-one], for which the “Aromatase inhibitory activity (in words)” value in data set [4] is “inactive”. The IC50 at 72 h in data set [2] and in data set [3] was more than 91.3 µM each time.
For the compound `COc1ccc2c(C)cc(=O)[nH]c2c1OC` [1g, 7,8-Dimethoxy-4-methylquinolin-2(1H)-one], the IC50 at 72 h in data set [2] and in data set [3] was more than 91.3 µM in each case.
As for `COc1cc(OC)c2c(c1)c(C)cc(=O)n2C` [1j, 6,8-Dimethoxy-1,4-dimethylquinolin-2(1H)-one], the “Aromatase inhibitory activity (in words)” value in data set [4] is on record as “submicromolar range”. Moreover, the IC50 at 72 h in data set [2] and in data set [3] was more than 85.8 µM each time.
For the compound `Cc1cc(=O)n(C)c2c1C(=O)C=CC2=O` [compound 12], the “Cytotoxicity (in words)” value in data set [5] was “low degree of cytotoxicity”.
As to `COc1cc2c(C)cc(=O)n(C)c2c(OC)c1OC` [1n, 6,7,8-Trimethoxy-1,4-dimethylquinolin-2(1H)-one], the IC50 at 72 h in data set [2] and in data set [3] was more than 76 µM in each case.
As to `COc1c(OC)c(OC)c2c(C)cc(=O)[nH]c2c1OC` [1q, 5,6,7,8-Tetramethoxy-4-methylquinolin-2(1H)-one], in data set [1], the “QR2 inhibitory activity (in words)” value is “completely inactive”. Further, the IC50 at 72 h in data set [2] and in data set [3] was more than 71.7 µM each time.
For `Cc1cc(=O)[nH]c2ccccc12` [1c, 4-Methylquinolin-2(1H)-one], the “QR2 inhibitory activity (in words)” value in data set [1] is “inactive”. Further, the “Aromatase inhibitory activity (in words)” value in data set [4] was “inactive”. The half-maximal inhibitory concentration (IC50) at 72 h in data set [2] and in data set [3] was more than 126 µM in each case.
Take `COc1cccc2c(C)cc(=O)[nH]c12` [1e, 8-Methoxy-4-methylquinolin-2(1H)-one]: in data set [4], the “Aromatase inhibitory activity (in words)” value is “not active”. In addition, the concentration for half-maximal inhibition (IC50) at 72 h in data set [2] and in data set [3] was more than 106 µM throughout.
In data set [2], `COc1cc(OC)c2c(c(C)cc(=O)n2C)c1OC` [1p, 5,6,8-Trimethoxy-1,4-dimethylquinolin-2(1H)-one] had an IC50 at 72 h of more than 76 µM. Besides, in data set [5], the “Cytotoxicity (in words)” value was “low degree of cytotoxicity”.
Turning to `COc1cc(=O)n(C)c2c3c(ccc12)OCO3` [compound 1, 6-Methoxy-9-methyl-[1,3]dioxolo[4,5-h]quinolin-8(9H)-one], the IC50 at 72 h in data set [2] and in data set [3] was more than 85.8 µM throughout. Also, the “Inhibition of mutagenicity induced by 7,12-dimethylbenz[a]anthracene (DMBA)” value in data set [6] is on record as “inhibit mutagenicity”. In addition, the “Inhibition of formation of DMBA-induced preneoplastic lesions” value in data set [7] is “inhibition of the formation of DMBA-induced preneoplastic lesions”.
As for `Cc1cc(=O)[nH]c2c3c(ccc12)OCO3` [1a, 6-Methyl-[1,3]dioxolo[4,5-h]quinolin-8(9H)-one], the IC50 at 72 h in data set [2] and in data set [3] was more than 98.5 µM in each case.
